From PubChem BioAssay (NCI)
“And” between values parts separate entries of the source, which are not always exact repeats. Equal entries are not always repeated.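 Step 1: Grow cells in 96-well plates. Step 2: Expose to compound for 48 hours at 5 concentrations. Step 3: Interpolate endpoints linearly; if unreached, use highest concentration. At the GI50, growth is halved. TGI is the concentration that stops growth completely.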

Assays:
Assay in all cases: NCI-60 cell line screen, 48 h
K-562 leukemia = test system: K-562 leukemia
SNB-19 CNS = test system: SNB-19 CNS
NCI-H226 lung = test system: NCI-H226 lung
NCI-H23 lung = test system: NCI-H23 lung
OVCAR-3 ovarian = test system: OVCAR-3 ovarian
UO-31 renal = test system: UO-31 renal
BT-549 breast = test system: BT-549 breast
T-47D breast = test system: T-47D breast
SR leukemia = test system: SR leukemia
PC-3 prostate = test system: PC-3 prostate

Compound | GI50 (K-562 leukemia) | TGI (K-562 leukemia) | GI50 (SNB-19 CNS) | TGI (SNB-19 CNS) | GI50 (NCI-H226 lung) | TGI (NCI-H226 lung) | GI50 (NCI-H23 lung) | TGI (NCI-H23 lung) | GI50 (OVCAR-3 ovarian) | TGI (OVCAR-3 ovarian) | GI50 (UO-31 renal) [µM] | TGI (UO-31 renal) | GI50 (BT-549 breast) [µM] | TGI (BT-549 breast) | GI50 (T-47D breast) | TGI (T-47D breast) | GI50 (SR leukemia) | TGI (SR leukemia) | GI50 (PC-3 prostate) | TGI (PC-3 prostate)
CNC(=O)c1cc(Oc2ccc3nc(NC(=O)Nc4ccc(Cl)c(Cl)c4)sc3c2)ccn1 | > 100 µM | > 100 µM | 1.99 µM | 3.98 µM | 2.28 µM | 4.58 µM | 2.78 µM | > 100 µM | 2.31 µM | 5.38 µM | 2.08 | 3.96 µM | 4.88 | > 100 µM | 2.65 µM | 6.36 µM | 6.47 µM | > 100 µM | – | –
CC(C)=CC(=O)Cc1nc2ccccc2[nH]c1=O | – | > 100 µM | – | > 100 µM | – | > 100 µM | – | > 100 µM | – | > 100 µM | – | > 100 µM | – | – | – | – | – | > 100 µM | – | –
O=C(Nc1ccc(C(F)(F)F)cc1[N+](=O)[O-])C(=O)C(C(=O)c1ccc2ccccc2c1)C1OC(=O)c2ccccc21 (configuration not stated) | – | 47.8 µM | – | 22.5 µM | – | 3.29 µM | – | 12.1 µM | – | > 51 µM | – | 28.8 µM | – | – | – | – | – | > 100 µM | – | –
O=C1N=C2c3c(sc4c3CCCC4)N=CN2C1N=Nc1ccc(Cl)cc1 (configuration not stated) | 5.13 µM | 87.1 µM | 25.2 µM | > 100 µM | 22.8 µM | > 100 µM | 12.3 µM | 63.9 µM | 21.9 µM | > 100 µM | 39.3 | > 100 µM | 1.44 | 18.1 µM | – | – | – | – | 13 µM | 75.3 µM
Cc1cc2c(cn1)C(=O)OCC2 | – | > 100 µM | – | > 100 µM | – | > 100 µM | – | > 100 µM | – | > 100 µM | – | > 100 µM | – | – | – | – | – | > 100 µM | – | –
CCOC(=O)/C(C#N)=C(O)/C(=C/c1ccccc1Cl)NC(=O)c1ccccc1 | – | > 100 µM | – | > 100 µM | – | > 100 µM | – | > 100 µM | – | > 100 µM | – | > 100 µM | – | – | – | – | – | – | – | –
CCc1ccccc1NC(=O)CCc1nc(=S)[nH][nH]1 | – | > 100 µM | – | > 100 µM | – | > 100 µM | – | > 100 µM | – | > 100 µM | – | > 100 µM | – | – | – | – | – | > 100 µM | – | –
CC1(C)CCSC(/C=C/c2ccccc2)=N1 | – | > 100 µM | – | 46 µM | – | – | – | 33.9 µM | – | 28.5 µM | – | – | – | 22 µM | – | – | – | – | – | 30.5 µM
O=C(CC(=O)Nc1ccc(Cl)cc1)NNCC(=O)Nc1nc(-c2ccccc2)cs1 | – | > 100 µM | – | > 100 µM | – | > 100 µM | – | > 100 µM | – | > 100 µM | – | – | – | – | – | – | – | – | – | –
CCCCCCC(C)CC(CCCCCC)NCCOC(=O)c1ccc([N+](=O)[O-])cc1 (configuration not stated) | – | 1.84 µM | – | 32.2 µM and 32.5 µM | – | 29.4 µM and 28.6 µM | – | 38.9 µM and 34.5 µM | 7.59 µM and 2.95 µM | 23.6 µM and 17.5 µM | – | 23.8 µM and 22.2 µM | – | 31.6 µM and 30.5 µM | – | 39.3 µM and 38.1 µM | – | – | – | –
Cc1cc2c(C(C)C)c(O)c(O)c3coc(/c1=c1/c(C)cc4c(C(C)C)c(=O)c(=O)c5coc1c45)c32 | – | 16.5 µM | – | 15.6 µM | – | 22.9 µM | – | 9.2 µM | – | 16.6 µM | – | 31.1 µM | – | – | – | – | – | – | – | –
O=c1c2cc(Br)ccc2oc2ccc(Br)cc12 | – | > 100 µM | – | > 100 µM | – | > 100 µM | – | > 100 µM | – | > 100 µM | – | > 100 µM | – | > 100 µM | – | > 100 µM | – | – | – | > 100 µM
CN1C(c2ccccc2)CC(=Nc2ccccc2)CC1c1ccccc1 (configuration not stated) | – | > 100 µM | – | 27.8 µM | – | 25.6 µM | – | 39.9 µM | – | 24 µM | – | 47.8 µM | – | – | – | – | – | 34.5 µM | – | –
OCCN(CO)CN(CN(CO)CCO)c1nc(N(CN(CO)CCO)CN(CO)CCO)nc(N(CN(CO)CCO)CN(CO)CCO)n1 | 0.559 ng/mL | 10.6 ng/mL | 2.32 ng/mL | 744 ng/mL | 1.25 ng/mL | 2.72 ng/mL | 1.57 ng/mL | 5.24 ng/mL | – | – | – | – | – | – | 1.09 ng/mL | 3.21 ng/mL | 0.742 ng/mL | 2.62 ng/mL | 1.48 ng/mL | 4.46 ng/mL
N#C/C(=C\c1cn(-c2ccccc2)c2ccccc12)C(=O)O | 71.7 µM | > 100 µM | 54.3 µM | > 100 µM | – | – | 35.7 µM | > 100 µM | 18.8 µM | 43.9 µM | 23.8 | > 100 µM | 36.6 | > 100 µM | 29.6 µM | > 100 µM | 68.8 µM | > 100 µM | 58.3 µM | > 100 µM
N=C(c1ccccc1)N1CCCCC1 | – | – | – | > 100 µM | – | > 100 µM | – | > 100 µM | – | – | – | > 100 µM | – | – | – | – | – | > 100 µM | – | –
COc1ncnc2c(NC3OC(CO)C(O)C3O)ncnc12 (configuration not stated) | – | – | – | 74 µM | – | 3.82 µM | – | 13.5 µM | – | 11.1 µM | – | > 21.9 µM | – | – | – | 7.22 µM | – | 0.276 µM | – | 12.6 µM
COc1cc2c(cc1OC)-c1c(cnn1C1OC(COC(C)=O)C(OC(C)=O)C(OC(C)=O)C1OC(C)=O)CC2 (configuration not stated) | – | > 100 µM | – | > 100 µM | – | > 100 µM | – | > 100 µM | – | > 100 µM | – | > 100 µM | – | – | – | – | – | > 28.7 µM | – | –
C/C(=N\NC(=S)N(C)C)c1ncc[nH]1 | – | 21.2 µM | – | > 100 µM | – | – | – | 5.07 µM | – | > 100 µM | – | 7.31 µM | – | – | – | – | – | 7.52 µM | – | –
O=C(Oc1ccccc1)c1cc(O)c(O)c(O)c1 | 5.78 µM | 70.9 µM | 13.8 µM | > 100 µM | 12.9 µM | > 100 µM | 11.7 µM | 59.2 µM | 4.34 µM | 47.3 µM | 2.93 | > 100 µM | 15.6 | 83.2 µM | 18.1 µM | > 100 µM | – | – | 13.7 µM | > 100 µM
Cn1c2ccccc2c2c(=O)n(CCCC(=O)NCC(=O)OC(=NC3CCCCC3)NC3CCCCC3)c3c(-c4ccccc4)nnn3c21 | 23 µM | > 100 µM | – | – | 40 µM | > 100 µM | 15.6 µM | 33 µM | 19.6 µM | 96.2 µM | 31.3 | > 100 µM | 27 | > 100 µM | – | – | 3.04 µM | 5.09 µM | 22.7 µM | > 100 µM
